# Assay results from patent US8980879B2 (AbbVie Inc., priority 2013, dated 2015).
# Tests used:
# BRD4 (BDI_K57-E168) = target: T1, BRD4 (BDI_K57-E168) (Homo sapiens, UniProt O60885); test: TR-FRET bromodomain binding assay, BRD4 first bromodomain; settings: His-tagged BD1, 100 nM Alexa647 probe; assay protocol D or F as given per row in c1; Ki calculated from IC50
# T1 construct: BD1: amino acids K57-E168; made in house
# Procedure: (§1) A time-resolved fluorescence resonance energy transfer (TR-FRET) assay was used to determine the affinities of compounds of the Examples listed in Table 1 for each bromodomain of BRD4. His-tagged first (BD1: amino acids K57-E168) and second (BD2: amino acids E352-E168) bromodomains of BRD4 were expressed and purified. An Alexa647-labeled BET-inhibitor was used as the fluorescent probe in the assay.
# (§2) Compound dilution series were prepared in DMSO via an approximately 3-fold serial dilution from one of the following:
# (§3) Assay method D: 500 μM-8.5 nM
# (§4) Assay method E: 0.47 mM to 7.8 nM
# (§5) Assay method F: 250 μM-4.2 nM
# (§6) Assay method G: 0.047 mM to 0.78 nM
# (§7) or 5-fold serial dilution from one of the following:
# (§8) Assay method A: 2.5 mM-800 nM
# (§9) Assay method B: 2.5 mM-797 nM
# (§10) For Assay methods A, C, D, and F: Compounds were then diluted 6:100 in assay buffer (20 mM Sodium Phosphate, pH 6.0, 50 mM NaCl, 1 mM Ethylenediaminetetraacetic acid, 0.01% Triton X-100, 1 mM DL-Dithiothreitol) to yield 3× working solutions. Six microliters (μL) of the working solution was then transferred to white, low-volume assay plates (Costar #3673). A 1.5× assay mixture containing His-tagged bromodomain, Europium-conjugated anti-His antibody (Invitrogen PV5596) and the Alexa-647-conjugated probe molecule was also prepared. Twelve μL of this solution were added to the assay plate to reach a final volume of 18 μL.
# (§11) For Assay methods B, E, and G: Compound dilutions were added directly into white, low-volume assay plates (Perkin Elmer Proxiplate 384 Plus#6008280) using a Labcyte Echo in conjunction with Labcyte Access and Thermo Multidrop CombinL robotics. Compounds were then suspended in eight microliters (μL) of assay buffer (20 mM Sodium Phosphate, pH 6.0, 50 mM NaCl, 1 mM Ethylenediaminetetraacetic acid disodium salt dihydrate, 0.01% Triton X-100, 1 mM DL-Dithiothreitol) containing His-tagged bromodomain, Europium-conjugated anti-His antibody (Invitrogen PV5596) and Alexa-647-conjugated probe.
# (§12) The final concentration of 1× assay mixture for assay methods A, B, C, D, E, F, and G contains 2% DMSO, 8 nM His-tagged bromodomain, 1 nM Europium-conjugated anti-His-tag antibody and 100 nM or 30 nM probe (for BDI or BDII, respectively) and compound concentration in the range of: 50 μM-16 nM for method A, 49.02 μM-15.63 nM for method B, 25 μM-423 pM for method C, 10 μM-169 pM for method D, 9.19 μM 150 pM for method E, 5 μM-85 pM for method F, and 0.92 μM-15 pM for method G.
# (§13) After a one-hour equilibration at room temperature, TR-FRET ratios were determined using an Envision multilabel plate reader (Ex 340, Em 495/520).
# (§14) TR-FRET data were normalized to the means of 24 no-compound controls (“high”) and 8 controls containing 1 μM un-labeled probe (“low”). Percent inhibition was plotted as a function of compound concentration and the data were fit with the 4 parameter logistic equation to obtain IC50s Inhibition constants (Ki) were calculated from the IC50s, probe Kd and probe concentration. Typical Z′ values were between 0.65 and 0.75. The minimum significant ratio was determined to evaluate assay reproducibility (Eastwood et al., (2006) J Biomol Screen, 11: 253-261). The MSR was determined to be 2.03 for BDI and 1.93 for BDII, and a moving MSR (last six run MSR overtime) for both BDI and BDII was typically <3.
# BRD4 (BDII_E352-M457) = target: T2, BRD4 (BDII_E352-M457) (Homo sapiens, UniProt O60885); test: TR-FRET bromodomain binding assay, BRD4 second bromodomain
# T2 construct: protocol; made in house
# Procedure: as §1, §2, §3, §4, §5, §6, §7, §8, §9, §10, §11, §12, §13, §14
# [1] = test system: breast cancer cell line MX-1; test: MX-1 cell line proliferation assay; format: cell-based; settings: Homo sapiens, MX1; MX-1 cells, 3-day (72 h) proliferation, Cell Titer Glo; read-out: Cellular proliferation: EC50
# Procedure: MX-1 Cell Line Proliferation Assay
# The impact of compounds of the Examples on cancer cell proliferation was determined using the breast cancer cell line MX-1 (ATCC) in a 3-day proliferation assay and the data are reported in Table 1. MX-1 cells were maintained in RPMI 1640 medium (Sigma) supplemented with 10% FBS at 37 C.° and an atmosphere of 5% CO2. For compound testing, MX-1 cells were plated in 96-well black bottom plates at a density of 5000 cells/well in 90 μL of culture media and incubated at 37° overnight to allow cell adhesion and spreading. Compound dilution series were prepared in DMSO via a 3-fold serial dilution from 3 mM to 0.1 μM. The DMSO dilution series were then diluted 1:100 in phosphate buffered saline, and 10 μL of the resulted solution were added to the appropriate wells of the MX-1 cell plate. The final compound concentrations in the wells were 3, 1, 0.3, 0.1, 0.03, 0.01, 0.003, 0.001, 0.0003 and 0.0001 μM.
# Luminescence readings from the Cell Titer Glo assay were normalized to the DMSO treated cells and analyzed using the GraphPad Prism software with sigmoidal curve fitting to obtain EC50s. The minimum significant ratio (MSR) was determined to evaluate assay reproducibility (Eastwood et al., (2006) J Biomol Screen, 11: 253-261). The overall MSR was determined to be 2.1 and a moving MSR (last six run MSR overtime) has been <2.
Compound,Ki (BRD4 (BDI_K57-E168)) [nM],Ki (BRD4 (BDII_E352-M457)) [nM],EC50 [1] [nM]
Cn1cc2c3c(c[nH]c(=O)c31)CN(c1ccc(F)cc1)c1ccc(NS(=O)(=O)c3ccccc3)cc1-2 [Example 26],0.27,3.12,9.48
CC(=O)Nc1ccc(S(=O)(=O)Nc2ccc3c(c2)-c2cn(C)c4c(=O)[nH]cc(c24)CN3c2ccc(F)cc2)cc1 [Example 27],0.2,1.73,8.56
Cn1cc(CC(=O)Nc2ccc3c(c2)-c2cn(C)c4c(=O)[nH]cc(c24)CN3c2ccc(F)cc2)cn1 [Example 28],1.17,8.21,13.5
Cn1cc2c3c(c[nH]c(=O)c31)CN(c1ccc(F)cc1)c1ccc(NC(=O)Cc3cc(F)ccc3Cl)cc1-2 [Example 30],3.53,21.8,51.2
Cc1ncc(CC(=O)Nc2ccc3c(c2)-c2cn(C)c4c(=O)[nH]cc(c24)CN3c2ccc(F)cc2)s1 [Example 32],1.37,11.6,12.3
Cc1cc(CC(=O)Nc2ccc3c(c2)-c2cn(C)c4c(=O)[nH]cc(c24)CN3c2ccc(F)cc2)nn1C [Example 33],1.49,6.39,17.4
Cn1cc2c3c(c[nH]c(=O)c31)CN(c1ccc(F)cc1)c1ccc(NC(=O)CCCC(=O)Nc3ccccc3)cc1-2 [Example 34],2.2,24.9,47.9
Cc1cnc(C(=O)Nc2ccc3c(c2)-c2cn(C)c4c(=O)[nH]cc(c24)CN3c2ccc(F)cc2)cn1 [Example 35],2.01,18.9,26.4
CCn1ccc(CNc2ccc3c(c2)-c2cn(C)c4c(=O)[nH]cc(c24)CN3c2ccc(F)cc2)n1 [Example 37],1.07,7.42,19
Cn1nccc1CNc1ccc2c(c1)-c1cn(C)c3c(=O)[nH]cc(c13)CN2c1ccc(F)cc1 [Example 38],1.52,9.3,9
Cn1cc2c3c(c[nH]c(=O)c31)CN(c1ccc(F)cc1)c1ccc(NCCCn3cccn3)cc1-2 [Example 39],1.94,12.3,23.2
Cc1cccc(CNc2ccc3c(c2)-c2cn(C)c4c(=O)[nH]cc(c24)CN3c2ccc(F)cc2)n1 [Example 40],0.86,7.27,25.5
COC(=O)CCCNc1ccc2c(c1)-c1cn(C)c3c(=O)[nH]cc(c13)CN2c1ccc(F)cc1 [Example 41],1.73,12.5,55.6
Cn1cncc1CNc1ccc2c(c1)-c1cn(C)c3c(=O)[nH]cc(c13)CN2c1ccc(F)cc1 [Example 42],2.07,13.4,9.83
Cc1cccnc1CNc1ccc2c(c1)-c1cn(C)c3c(=O)[nH]cc(c13)CN2c1ccc(F)cc1 [Example 43],1.25,6.49,17.3
Cn1cc2c3c(c[nH]c(=O)c31)CN(c1ccc(F)cc1)c1ccc(NC(=O)Nc3cccc(Oc4ccccc4)c3)cc1-2 [Example 44],53.3,> 408,> 1000
CN1CCN(CCC(=O)Nc2ccc3c(c2)-c2cn(C)c4c(=O)[nH]cc(c24)CN3c2ccc(F)cc2)CC1 [Example 47],1.14,13.3,14.3
Cn1cc2c3c(c[nH]c(=O)c31)CN(c1ccc(F)cc1)c1ccc(NC(=O)CCN3CCCCC3)cc1-2 [Example 48],2.39,19.5,29.5

# Second part, the compound after the results:
Ki (BRD4 (BDI_K57-E168)) [nM],Ki (BRD4 (BDII_E352-M457)) [nM],EC50 [1] [nM],Compound
2.74,29.8,65.1,Cn1cc2c3c(c[nH]c(=O)c31)CN(c1ccc(F)cc1)c1ccc(NC(=O)Cc3cc(F)ccc3Br)cc1-2 [Example 49]
5.94,33.1,63.7,Cn1cc2c3c(c[nH]c(=O)c31)CN(c1ccc(F)cc1)c1ccc(NC(=O)Cc3cc(Cl)ccc3Cl)cc1-2 [Example 50]
2.76,55.9,55.9,Cn1cc2c3c(c[nH]c(=O)c31)CN(c1ccc(F)cc1)c1ccc(NC(=O)Cc3cc(F)ccc3F)cc1-2 [Example 52]
1.72,29,54.9,Cc1ccc(F)cc1CNC(=O)c1ccc2c(c1)-c1cn(C)c3c(=O)[nH]cc(c13)CN2c1ccc(F)cc1 [Example 57]
1.83,12.7,63.3,Cn1cc2c3c(c[nH]c(=O)c31)CN(c1ccc(F)cc1)c1ccc(C(=O)NCc3cc(F)ccc3Br)cc1-2 [Example 58]
3.2,46.1,75.5,Cn1cc2c3c(c[nH]c(=O)c31)CN(c1ccc(F)cc1)c1ccc(C(=O)NCc3cc(F)ccc3Cl)cc1-2 [Example 60]
1.62,33.1,65.6,Cn1cc2c3c(c[nH]c(=O)c31)CN(c1ccc(F)cc1)c1ccc(C(=O)NCc3cnn(Cc4ccccc4)c3)cc1-2 [Example 62]
1.98,22,49.9,Cn1cc2c3c(c[nH]c(=O)c31)CN(c1ccc(F)cc1)c1ccc(C(=O)NCc3ccccc3)cc1-2 [Example 63]
3.92,44.9,55.5,COc1ccc(F)cc1CC(=O)Nc1ccc2c(c1)-c1cn(C)c3c(=O)[nH]cc(c13)CN2c1ccc(F)cc1 [Example 65]
2.14,30.1,44.6,Cn1cc2c3c(c[nH]c(=O)c31)CN(c1ccc(F)cc1)c1ccc(NC(=O)Cc3cc(F)ccc3[N+](=O)[O-])cc1-2 [Example 66]
1.26,1.79,17.5,CCS(=O)(=O)Nc1cnc2c(c1)-c1cn(C)c3c(=O)[nH]cc(c13)CN2c1ccc(F)cc1F [Example 68]
0.78,1.89,4.4,Cn1cc2c3c(c[nH]c(=O)c31)CN(c1ccc(Cl)cc1)c1ncc(N)cc1-2 [Example 69]
0.79,0.708,24.4,CCS(=O)(=O)Nc1cnc2c(c1)-c1cn(C)c3c(=O)[nH]cc(c13)CN2c1ccc(Cl)cc1 [Example 70]
1.65,2.21,35.6,Cn1cc2c3c(c[nH]c(=O)c31)CN(c1ccc(Cl)cc1)c1ncc(NS(C)(=O)=O)cc1-2 [Example 71]
3.61,17,> 1000,CCS(=O)(=O)Nc1ccc2c(c1)-c1cn(C)c3c(=O)[nH]cc(c13)CN2C1CCN(C(C)=O)CC1 [Example 74]
